Here are results for one compound from patent US20250249056A1, “CANCER THERAPIES COMPRISING A NUCLEAR EXPORT INHIBITOR AND AN ONCOLYTIC VIRUS” (priority 2022, published 2025).

Experiment [1] deals with MYXV. Put plainly: MYXV reporter gene expression (GFP/TdTomato) and foci by fluorescence microscopy in human cancer cell lines. As to conditions: PANC-1 and HT29 cells; pretreatment with LMB 0.001-0.1 μM; vMyx-GFP-TdTomato.
Experiment [2] concerns MYXV. Put plainly: Viral replication assay: progeny virus titration on permissive rabbit RK13 cells. The format is cell-based, myxoma virus. As to conditions: PANC-1 and HT29 cells; LMB 0.001-0.1 μM. As for the experimental part: Viral titers in different human cancer cell lines were determined using a viral replication assay. Cells were seeded in 24-well plates (2×10^5 cells/well). The next day, the cells were treated with different concentrations of leptomycin B (LMB) or selinexor diluted in DMEM for 1 hour. MYXV was added to the cells and incubated for one hour at 37° C. After 1 hour, the unbound viruses were washed away using DMEM, and DMEM with LMB or selinexor was added to the cells. Cells were harvested in DMEM without LMB or selinexor at the indicated time points. After harvesting the cells, they were stored at −80° C. until processing. Samples were subjected to three freeze/thaw cycles and one-minute sonification to lyse cells and release the viral particles. Afterwards, different dilutions were prepared in DMEM and plated on rabbit RK13 and foci were counted after 48 hours using a fluorescent microscope. All assays and dilutions were performed in triplicate.

The next experiment has as its system DHX9. Put plainly: Immunofluorescence staining of DHX9 localization / antiviral granules in MYXV-infected A549 cells. The format is cell-based, human. As for the experimental part: Immunofluorescence: Cells (5×10^5-1×10^6/dish) were seeded onto glass bottom 35 mm petri dishes overnight. Depending on the experiment, the next day, cells were transfected with siRNA for 48 hours or treated with a nuclear export inhibitor, MYXV, or a combination of both. At different time points after treatment, the cells were washed with PBS three times, fixed with 2% paraformaldehyde in PBS for 12 minutes at room temperature, washed with PBS three times, and permeabilized in 0.1% Triton™ X-100 in PBS for 90 seconds at room temperature. Fixed cells were washed with PBS three times and then blocked with 3% BSA in PBS for 30 minutes at 37° C., incubated with primary antibody (1:300 dilution) for 30 minutes at 37° C., washed with PBS six times, and incubated with secondary antibodies conjugated to different Alexa Fluor. After washing again with PBS six times, samples were mounted on glass slides with Vecta Shield (Vectorlabs) containing DAPI (4′,6′-diamidino-2-phenylindole) to stain DNA in the nuclei […]. Images were captured using a fluorescence microscope (Leica).

Regarding `CCC(=C/[C@H](C)C/C=C/C(C)=C/[C@@H](C)C(=O)[C@@H](C)[C@H](O)[C@@H](C)C/C(C)=C/C(=O)O)/C=C/[C@@H]1OC(=O)C=C[C@@H]1C` [LMB, leptomycin B], in the experiment with MYXV [1], the “viral gene expression (early/late GFP and late TdTomato reporter protein expression)” value is “enhanced viral gene expression”. In addition, the “viral production measured by titration assay” value in the experiment on MYXV [2] is on record as “significantly enhanced viral production”. In addition, the “formation of DHX9 antiviral granules in the cytoplasm” value with DHX9 (A549 cells infected with vMyx-GFP, 24 h) is listed as “blocked the formation of antiviral granules”. Moreover, in the experiment on DHX9 (A549 cells, LMB 1 h then vMyx-GFP MOI=1, 24 h), the “cells in which DHX9 remained in the nucleus” value was over 80%.
